The values that follow come from PMC6273229, “Imidazopyranotacrines as Non-Hepatotoxic, Selective Acetylcholinesterase Inhibitors, and Antioxidant Agents for Alzheimer′s Disease Therapy” (Molecules, 2016).

The test system of one series is HepG2 cells. The class given is cell-based. The note with it: for Cell viability (MTT reduction, % control): 24 h, mean ± S.E.M.; for hepatotoxicity on HepG2 cells (in words): cell viability assay, 1–1000 µM. As to the method:
The human hepatoma HepG2 line cells were purchased from American Type Culture Collection. The cells were cultured in Eagle’s Minimum Essential Medium (Ozyme, Montigny-le-Bretonneux, France) supplemented with 10% fetal bovine serum, 1X non-essential amino acids, 100 units/mL penicillin and […] streptomycin (Dutscher, Brumath, France). […] Prior to the experiment, cells were seeded in 96-well culture plates at a density of 0.1 × 10^6 cells per well. After 24 h of incubation, the culture medium was refreshed and 100 µL of the test compounds or DMSO (0.1%) were added. Compounds were tested at 7 concentrations (1–1000 µM) in triplicate.
Cell viability, measured as the mitochondrial activity of living cells, was determined by quantitative colorimetric assay with 3-[4,5 dimethylthiazol-2-yl]-2,5-diphenyl-tetrazolium bromide (MTT). Briefly, after 24 h of treatment, cells were incubated with 50 µL MTT (0.5 mg/mL, Sigma Aldrich) at 37 °C for 2 h. Plates were centrifuged, MTT was removed and 100 µL DMSO was distributed per well. The absorbance was read at 570 nm by microplate spectrophotometry. Cell viability was expressed as percentage over controls (DMSO, 0.1%).
A general note: Formazan colour is commonly taken as a measure of viable cells.

The conditions of series [1]: ORAC-FL, Trolox equivalents, cited from earlier work.
Series [2] deals with T1, BuChE from horse serum (eqBuChE) (Equus caballus, UniProt P81908).
T1 construct: BuChE from horse serum (lyophilized powder, Sigma-Aldrich); purchased Sigma-Aldrich; host or cells: horse serum
As to the kind of experiment: biochemical. The following applies: mean ± SEM. On the procedure:
The % inhibitory activity on BuChE from horse serum (lyophilized powder, Sigma-Aldrich), was evaluated spectrophotometrically by the method of Ellman et al.. BuChE stock solutions were first dissolved in 0.1 M phosphate buffer (pH 8.0) and then aliquoted in small vials. Compounds were dissolved in DMSO at 10 mM. The reaction was carried out in a final volume of 3 mL of a 0.1 M phosphate-buffered solution at pH 8.0, containing 5,5′-dithiobis-2-nitrobenzoic acid (DTNB, 2625 µL, 0.35 mM, final concentration), eqBuChE (60 µL, 0.05 U/mL final concentration), tested compound (3 µL, 10 µM, final concentration) and 1% w/v Bovine Serum Albumin phosphate-buffered (pH 8.0) solution (BSA, 40 µL). The inhibition with respect to control without compound was determined by pre-incubating this mixture at rt with each compound for 10 min. After this period, butyrylthiocholine iodide (150 µL, 0.5 mM final concentration) was added and incubated for 15 min at rt.

Series [3] is described as follows: Oxygen radical absorbance capacity by fluorescence (ORAC-FL). The following applies: Trolox equivalents, mean ± SD. As to the method: The antioxidant power of the imidazopyranotacrines 1–13 was determined by the oxygen radical absorbance capacity by fluorescence (ORAC-FL) method using fluorescein as fluorescent probe and Trolox (6-hydroxy-2,5,7,8-tetramethylchroman-2-carboxylic acid) as a reference compound. Results are expressed as Trolox equivalents (μmol Trolox per μmol test compound).
The radical scavenging activity of imidazopyranotacrines 1–13 was determined by the ORAC-FL method using a Varioskan Flash plate reader with built-in injectors (Thermo Scientific). Trolox, 2,2′-azobis(amidinopropane) dihydrochloride (AAPH) and fluorescein (FL) were purchased from Sigma-Aldrich. The reaction was performed at 37 °C in 75 mM phosphate buffer (pH = 7.4), and the final volume reaction mixture was 200 µL. The final concentrations were 1–8 µM for Trolox and 0.1–1 µM for the tested compounds. Briefly, in a black 96-well microplate (Nunc), antioxidant (20 µL) and fluorescein (120 µL) were incubated for 15 min at 37 °C. Then, 2,2′-azobis(amidinopropane) dihydrochloride (60 µL) was added using the built-in injector. […] All assays were made in triplicate and at least three different assays were performed for each sample.
The net AUC corresponding to a sample was calculated as follows: Net AUC = AUCantioxidant − AUCblank(2)
Regression equations were calculated by plotting the net AUC against the antioxidant concentration. The ORAC value was obtained by dividing the slope of the latter curve by the slope of the Trolox curve obtained in the same assay. ORAC values was expressed as µmol of Trolox equivalent/µmol of imidazopyranotacrines. Data are expressed as mean ± SD.

Series [4] deals with AChE from Electrophorus electricus (EeAChE) (Electrophorus electricus, UniProt O42275). As to the kind of experiment: biochemical. On the procedure:
The inhibitory activity on AChE from Electrophorus electricus (type VI-S, Sigma, Milan, Italy), was evaluated spectrophotometrically by the method of Ellman et al.. AChE stock solution was prepared by dissolving EeAChE lyophilized powder (Sigma) in 0.1 M phosphate buffer (pH = 8.0) containing 0.1% Triton X-100. Stock solutions of the tested compounds (1 mM) were prepared in MeOH/H2O 50/50 (v/v) and diluted in MeOH/H2O 50/50 (v/v). […] Assay solutions with and without inhibitor were preincubated at 37 °C for 20 min followed by the addition of substrate. Blank solutions containing all components except EeAChE were prepared in parallel to account for the non-enzymatic hydrolysis of the substrate. Initial rate assays were performed at 37 °C with a Jasco V-530 double beam spectrophotometer. […] The velocity in the presence and absence of inhibitor were compared and % inhibition was calculated. The results were plotted by placing the percentage of inhibition in function of the decimal log of the final inhibitor concentration. Linear regression and IC50 values were calculated using Microcal Origin 3.5 software (Microcal Software, […]).

The target in a further series is T2, EeAChE (Electrophorus electricus, UniProt O42275).
T2 construct: purchased Sigma type VI-S
The series can be described thus: Kinetic analysis of the inhibition of EeAChE (Lineweaver-Burk, Dixon, Cornish-Bowden plots). The class given is biochemical. On the procedure: . […] The non-competitive mechanism of action was confirmed by building the Cornish-Bowden plot (Figure 3B). Replots of the substrate/velocity versus the concentration of compound 8 provided an estimate of the non-competitive inhibition constant, which resulted equal to 4.10 μM. The non-competitive mechanism of action was confirmed by computational chemistry by performing the docking analysis of both enantiomers of compound 8 on AChE (see Supplementary Materials).
[…]. Four concentrations of inhibitor were selected for this study: 0.850, 2.124, 3.399, 6.798 μM. The plots were assessed by a weighted least-squares analysis that assumed the variance of the velocity (v) to be a constant percentage of v for the entire data set. Data analysis was performed with GraphPad Prism 4.03 software (GraphPad Software Inc., San Diego, CA, USA). The determination of the non-competitive inhibition constant Ki value was carried out using Dixon plot, i.e., plotting the apparent 1/v vs. inhibitor concentration [I] [34] and confirmed by Cornish-Bowden plot ([substrate]/v vs. [I]).

Molecules are shown by their SMILES. Like-named read-outs stand apart in the source and are kept apart here.

T1 sequence (P81908 whole entry): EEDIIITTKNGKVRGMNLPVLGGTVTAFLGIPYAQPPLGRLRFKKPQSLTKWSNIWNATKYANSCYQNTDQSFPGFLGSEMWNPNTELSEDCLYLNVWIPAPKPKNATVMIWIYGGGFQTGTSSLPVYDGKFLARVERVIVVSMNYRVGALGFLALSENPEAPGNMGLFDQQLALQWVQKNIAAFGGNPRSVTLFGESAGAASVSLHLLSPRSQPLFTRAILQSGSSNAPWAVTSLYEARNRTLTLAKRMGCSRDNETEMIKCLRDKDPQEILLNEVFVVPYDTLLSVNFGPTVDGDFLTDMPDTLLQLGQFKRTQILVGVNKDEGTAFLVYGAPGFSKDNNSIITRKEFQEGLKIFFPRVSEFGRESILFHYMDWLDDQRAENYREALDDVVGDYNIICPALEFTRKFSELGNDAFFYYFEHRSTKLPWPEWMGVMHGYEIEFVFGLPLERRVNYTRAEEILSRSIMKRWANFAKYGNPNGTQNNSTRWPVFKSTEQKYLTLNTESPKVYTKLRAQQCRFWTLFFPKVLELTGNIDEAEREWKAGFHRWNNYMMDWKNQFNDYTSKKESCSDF
T2 sequence (O42275 24-633): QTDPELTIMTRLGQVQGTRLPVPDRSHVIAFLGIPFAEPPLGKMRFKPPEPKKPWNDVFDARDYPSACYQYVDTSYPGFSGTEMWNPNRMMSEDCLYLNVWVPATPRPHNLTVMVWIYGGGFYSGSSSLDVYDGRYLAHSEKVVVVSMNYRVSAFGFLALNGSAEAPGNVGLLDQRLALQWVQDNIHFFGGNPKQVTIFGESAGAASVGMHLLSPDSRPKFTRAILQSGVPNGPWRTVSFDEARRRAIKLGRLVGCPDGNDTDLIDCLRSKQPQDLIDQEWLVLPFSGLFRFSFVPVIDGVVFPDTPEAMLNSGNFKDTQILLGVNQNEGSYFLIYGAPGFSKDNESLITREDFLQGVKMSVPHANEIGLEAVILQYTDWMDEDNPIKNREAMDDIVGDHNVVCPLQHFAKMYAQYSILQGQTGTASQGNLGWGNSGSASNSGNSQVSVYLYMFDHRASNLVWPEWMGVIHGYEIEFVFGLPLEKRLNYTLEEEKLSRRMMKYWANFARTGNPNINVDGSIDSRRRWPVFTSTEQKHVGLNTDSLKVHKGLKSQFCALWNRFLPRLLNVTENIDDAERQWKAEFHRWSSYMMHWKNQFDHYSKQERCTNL
Sequence of AChE from Electrophorus electricus (EeAChE) (O42275 24-633): as above

With `Nc1c2c(nc3ccccc13)CCCC2` [Tacrine], the “Cell viability (MTT reduction, % control)” value in the series with HepG2 cells (HepG2, 1 µM) came to 95.8 ± 2.2 % control; with HepG2 cells (HepG2, 3 µM), 100.4 ± 2.2 % control; in the series with HepG2 cells (HepG2, 10 µM), 96.9 ± 3.9 % control; in the series with HepG2 cells (HepG2, 30 µM), 97.7 ± 3.9 % control; in the series with HepG2 cells (HepG2, 100 µM), 98.6 ± 3.8 % control; with HepG2 cells (HepG2, 300 µM) it was 39.2 ± 4.7 % control. The “Cell viability (MTT reduction, % control)” value in the series on HepG2 cells (HepG2, 1000 µM) is listed as 20.0 ± 2.1 % control. Also, the “hepatotoxicity on HepG2 cells (in words)” value in the series on HepG2 cells is “safe up to 100 µM”. Further, the ORAC in series [1] was 0.20 ± 0.04 [28] µmol Trolox/µmol compound; in series [1] (listed as tacrine), 0.20 ± 0.04 µmol Trolox/µmol compound.
As a reminder, the inhibition is the relative decrease from the control value, in per cent. As usually defined, the IC50 is the concentration at which inhibition is half-maximal. Lower therefore signals higher potency. `CCOC(=O)C1=C(C)Oc2nc3c(c(N)c2C1c1nccn1C)CCCC3` (stereo not shown) [Compound 2, Ethyl 5-amino-2-methyl-4-(1-methyl-1H-imidazol-2-yl)-6,7,8,9-tetrahydro-4H-pyrano[2,3-b]quinoline-3-carboxylate] registered an inhibition at 10 µM in series [2] of 34 ± 0.5%. Also, the “Cell viability (MTT reduction, % control)” value was found to be 102.7 ± 3.7 % control in the series with HepG2 cells (HepG2, 1 µM); 103.2 ± 4.4 % control in the series with HepG2 cells (HepG2, 3 µM); 101.3 ± 3.9 % control with HepG2 cells (HepG2, 10 µM); 99.2 ± 2.6 % control with HepG2 cells (HepG2, 30 µM); 93.0 ± 4.7 % control in the series with HepG2 cells (HepG2, 100 µM); 87.5 ± 3.2 % control in the series on HepG2 cells (HepG2, 300 µM). The “Cell viability (MTT reduction, % control)” value with HepG2 cells (HepG2, 1000 µM) is reported as 58.8 ± 2.1 % control. In the series with HepG2 cells, the “hepatotoxicity on HepG2 cells (in words)” value was “safe even at 300 µM”. For the same molecule, the ORAC in series [3] was determined as 1.79 ± 0.17 µmol Trolox/µmol compound. Further, the concentration for half-maximal inhibition (IC50) in series [4] was determined as 11.5 ± 0.4 µM.
The Ki is the dissociation constant of the complex between target and ligand, obtained from inhibition or displacement. `Cn1ccnc1C1c2c(nc3c(c2N)CCCC3)Oc2ccc3ccccc3c21` (stereo not shown) [Compound 8, 14-(1-Methyl-1H-imidazol-2-yl)-9,11,12,14-tetrahydro-10H-benzo[5,6]chromeno[2,3-b]quinolin-13-amine]: at 10 µM the inhibition in series [2] was 51.6 ± 0.6%. Besides, the “Cell viability (MTT reduction, % control)” value worked out at 108.1 ± 5.4 % control in the series on HepG2 cells (HepG2, 1 µM); 101.3 ± 10.8 % control in the series with HepG2 cells (HepG2, 3 µM); 79.0 ± 9.1 % control with HepG2 cells (HepG2, 10 µM); 57.6 ± 4.2 % control in the series on HepG2 cells (HepG2, 30 µM); 52.7 ± 3.3 % control with HepG2 cells (HepG2, 100 µM); 51.2 ± 2.8 % control in the series on HepG2 cells (HepG2, 300 µM). Besides, the “Cell viability (MTT reduction, % control)” value in the series on HepG2 cells (HepG2, 1000 µM) came to 66.2 ± 6.8 % control. For the same molecule, the “hepatotoxicity on HepG2 cells (in words)” value in the series with HepG2 cells is given as “more toxic than tacrine”. Also, the “mechanism of inhibition of EeAChE” value at EeAChE (Km unaltered, Vmax decreased) is on record as “non-competitive”. The Ki at EeAChE (substrate acetylthiocholine, estimate from Cornish-Bowden plot, read-out: non-competitive inhibition constant (Ki)) was 4.1 µM. Besides, the ORAC in series [3] was found to be 1.88 ± 0.01 µmol Trolox/µmol compound. In series [4], this molecule had a half-maximal inhibitory concentration (IC50) of 6.73 ± 0.52 µM.
